Reference: PubChem BioAssay AID2060509 (Molecular Pharmacology Branch, DTP, NCI, 2025)
pIC50: −log10 of the molar value.

System: 485176-168-R4-J1-PDC spheroids with HUVEC/MSC, viability
Assay: Anticancer human tumor 485176-168-R4-J1-PDC patient-derived pancreatic adenocarcinoma cell line growth inhibition [GQUAD]
Details: for pIC50: curve of first compound; for viability, T/C: stronger effect = lower value
Summary of the method: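 Tumor cells were grown as complex spheroids with HUVEC endothelial cells and mesenchymal stem cells as stroma. G-quadruplex stabilizers were combined with targeted agents over half-log dilutions from near the clinical Cmax, or from 10 microM.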

[1] = second compound 0.0316 µM, first compound 0.0316 µM
[2] = second compound 0.0316 µM, first compound 0.1 µM
[3] = second compound 0.0316 µM, first compound 0.316 µM
[4] = second compound 0.0316 µM, first compound 1 µM
[5] = second compound 0.0316 µM, first compound 3.16 µM
[6] = second compound 0.0316 µM, first compound 10 µM
[7] = second compound 0.1 µM, first compound 0.0316 µM
[8] = second compound 0.1 µM, first compound 0.1 µM
[9] = second compound 0.1 µM, first compound 0.316 µM
[10] = second compound 0.1 µM, first compound 1 µM
[11] = second compound 0.1 µM, first compound 3.16 µM
[12] = second compound 0.1 µM, first compound 10 µM
[13] = second compound 0.316 µM, first compound 0.0316 µM
[14] = second compound 0.316 µM, first compound 0.1 µM
[15] = second compound 0.316 µM, first compound 0.316 µM
[16] = second compound 0.316 µM, first compound 1 µM
[17] = second compound 0.316 µM, first compound 3.16 µM
[18] = second compound 0.316 µM, first compound 10 µM
[19] = second compound 1 µM, first compound 0.0316 µM
[20] = second compound 1 µM, first compound 0.1 µM
[21] = second compound 1 µM, first compound 0.316 µM
[22] = second compound 1 µM, first compound 1 µM
[23] = second compound 1 µM, first compound 3.16 µM
[24] = second compound 1 µM, first compound 10 µM
[25] = second compound 3.16 µM, first compound 0.0316 µM
[26] = second compound 3.16 µM, first compound 0.1 µM
[27] = second compound 3.16 µM, first compound 0.316 µM
[28] = second compound 3.16 µM, first compound 1 µM
[29] = second compound 3.16 µM, first compound 3.16 µM
[30] = second compound 3.16 µM, first compound 10 µM
[31] = second compound 10 µM, first compound 0.0316 µM
[32] = second compound 10 µM, first compound 0.1 µM
[33] = second compound 10 µM, first compound 0.316 µM
[34] = second compound 10 µM, first compound 1 µM
[35] = second compound 10 µM, first compound 3.16 µM
[36] = second compound 10 µM, first compound 10 µM
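Note: spheroids exposed to compounds for seven days before readout.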
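Throughout, for viability, T/C: percent viability relative to DMSO vehicle control wells as 100%.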

`CC(=O)O[C@H]1C(=O)[C@@]2(C)[C@H]([C@H](OC(=O)c3ccccc3)[C@]3(O)C[C@H](OC(=O)[C@H](O)[C@@H](NC(=O)c4ccccc4)c4ccccc4)C(C)=C1C3(C)C)[C@]1(OC(C)=O)CO[C@@H]1C[C@@H]2O` + Cc1cnc(CNC(=O)c2c(=O)c3ccc(N4CCCN(C)CC4)nc3n3c2sc2ccccc23)cn1 showed a pIC50 (second compound 0.0316 µM) greater than 7.50, a pIC50 (second compound 0.1 µM) greater than 7.50 and a pIC50 (second compound 0.316 µM) greater than 7.50. For the same compound, the pIC50 (second compound 1 µM) was greater than 7.50, the pIC50 (second compound 3.16 µM) was greater than 7.50 and the pIC50 (second compound 10 µM) was greater than 7.50. For the same compound, the viability, T/C [1] was 30%, the viability, T/C [2] was 13.6% and the viability, T/C [3] was 11.2%. It also gave a viability, T/C [4] of 12.7%, a viability, T/C [5] of 10.6% and a viability, T/C [6] of 9.91%. The viability, T/C [7] was 27.1%, the viability, T/C [8] was 19% and the viability, T/C [9] was 12%. It also gave a viability, T/C [10] of 12.8%, a viability, T/C [11] of 11.7% and a viability, T/C [12] of 9.87%. For the same compound, the viability, T/C [13] was 22%, the viability, T/C [14] was 14.2% and the viability, T/C [15] was 10.4%. The viability, T/C [16] was 11.8%, the viability, T/C [17] was 13.8% and the viability, T/C [18] was 12.9%. For the same compound, the viability, T/C [19] was 23.1%, the viability, T/C [20] was 17.3% and the viability, T/C [21] was 17.5%. The viability, T/C [22] was 11.9%, the viability, T/C [23] was 11.8% and the viability, T/C [24] was 14.7%. For the same compound, the viability, T/C [25] was 26%, the viability, T/C [26] was 17.8% and the viability, T/C [27] was 12.8%. For the same compound, the viability, T/C [28] was 12.8%, the viability, T/C [29] was 15.3% and the viability, T/C [30] was 12.7%. It also gave a viability, T/C [31] of 23.4%, a viability, T/C [32] of 14.8% and a viability, T/C [33] of 14.5%. It also gave a viability, T/C [34] of 12.9%, a viability, T/C [35] of 12.8% and a viability, T/C [36] of 11.2%.

`CC1COCCN1c1cc(-c2ccnn2C)c2ccnc(-c3ccn[nH]3)c2n1` (centres undefined) + Cc1cnc(CNC(=O)c2c(=O)c3ccc(N4CCCN(C)CC4)nc3n3c2sc2ccccc23)cn1 showed a pIC50 (second compound 0.0316 µM) greater than 7.50, a pIC50 (second compound 0.1 µM) greater than 7.50 and a pIC50 (second compound 0.316 µM) greater than 7.50. For the same compound, the pIC50 (second compound 1 µM) was greater than 7.50, the pIC50 (second compound 3.16 µM) was greater than 7.50 and the pIC50 (second compound 10 µM) was greater than 7.50. The viability, T/C [1] was 40.6%, the viability, T/C [2] was 15.9% and the viability, T/C [3] was 12.9%. The viability, T/C [4] was 8.3%, the viability, T/C [5] was 10.7% and the viability, T/C [6] was 11.9%. It also gave a viability, T/C [7] of 22.2%, a viability, T/C [8] of 12.2% and a viability, T/C [9] of 7.9%. It also gave a viability, T/C [10] of 11.2%, a viability, T/C [11] of 10.8% and a viability, T/C [12] of 11.7%. It also gave a viability, T/C [13] of 18.2%, a viability, T/C [14] of 9.35% and a viability, T/C [15] of 8.47%. For the same compound, the viability, T/C [16] was 7.9%, the viability, T/C [17] was 10.6% and the viability, T/C [18] was 10.4%. It also gave a viability, T/C [19] of 12.6%, a viability, T/C [20] of 9.48% and a viability, T/C [21] of 9.86%. It also gave a viability, T/C [22] of 8.6%, a viability, T/C [23] of 11.5% and a viability, T/C [24] of 10.6%. For the same compound, the viability, T/C [25] was 15%, the viability, T/C [26] was 11.8% and the viability, T/C [27] was 10.1%. It also gave a viability, T/C [28] of 10.4%, a viability, T/C [29] of 9.56% and a viability, T/C [30] of 9.96%. It also gave a viability, T/C [31] of 16%, a viability, T/C [32] of 11% and a viability, T/C [33] of 9.84%. The viability, T/C [34] was 9.05%, the viability, T/C [35] was 9.12% and the viability, T/C [36] was 10.4%.
